Assay: gradient 5% acetonitrile 3 min, to 50% in 2 min, to 85% in 15 min, held 3 min, 100 µL/min
Conditions: column: Zorbax Extend-C18 2.1 x 50 mm; eluents: water / acetonitrile, 0.1% formic acid
Outline: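 Over 3 months, pure standards in mixtures of ~100 molecules were run by HPLC coupled to a quadrupole time-of-flight mass spectrometer in positive and negative ionization mode. The column was a Zorbax Extend-C18 (2.1 × 50 mm, 1.8 μm) at 100 μL/min, eluted with water and acetonitrile each holding 0.1% formic acid, with 40 μL dead and 900 μL dwell volumes. Retention time was determined from adduct peaks chosen by software and checked manually.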

Row | Compound | RP-LC retention time [s]
1 | COc1cc(C)c(C)cc1S(=O)(=O)Nc1ccc2c(c1)N(S(C)(=O)=O)CCC2 | 844
2 | Cc1ccc(NC(=O)Cn2cnc3nc(N4CCCC(C(=O)NC(C)C)C4)sc3c2=O)cc1C (stereo not given) | 730
3 | CCCNC(=O)C1CCCN(c2ccc(SCC(=O)Nc3ccc(C)cc3)nn2)C1 (stereo not given) | 686
4 | O=C(Cn1c2ccccc2n2c(=O)cc(-c3ccc(F)cc3)nc12)NCc1ccco1 | 912
5 | COc1ccccc1-c1noc(Cn2ncn3nc(-c4ccc(Br)cc4)cc3c2=O)n1 | 1110
6 | O=C(Cc1cccs1)NC1CCc2nnc(C3CC3)n2CC1 (stereo not given) | 598
7 | Cc1ccccc1NC(=O)c1nnc(CSCC(=O)N2CCN(c3ccccn3)CC2)s1 | 637
8 | CC(C)c1cc(C2CCCN2C(=O)c2ccc3c(c2)OCO3)on1 (stereo not given) | 824
9 | CCOc1ccc(NC(=O)C2CCCN(c3nccnc3Sc3ccccc3)C2)cc1 (stereo not given) | 1100
10 | CCS(=O)(=O)c1nc2ccc(NS(=O)(=O)c3ccccc3Cl)cc2s1 | 858
11 | Cn1ncc(N2CCCC(C(=O)O)C2)cc1=O (stereo not given) | 580
12 | CC(C)c1noc(C2(NC(=O)c3ccc(C(F)(F)F)cc3)CCCCC2)n1 | 1130
13 | Cc1ncsc1C1N(C2CCN(C(=O)c3cnccn3)CC2)C(=O)C12CCCC2 (stereo not given) | 654
14 | O=C1CCc2cc(NS(=O)(=O)Cc3ccccc3Cl)ccc2N1 | 783
15 | CN(CCc1noc(-c2ccc(C(=O)N3CCCCC3)cc2)n1)C(=O)C1CC1 | 742
16 | CCN(CC)C(=O)c1cc2c(s1)N(CC1CC1)CCCC2 | 1180
17 | O=C(CCC1CCN(c2cc(NC3CC3)ncn2)CC1)N1CCN(c2ccccn2)CC1 | 536
18 | COc1ccc(OC)c(S(=O)(=O)N(C)C)c1 | 702
19 | O=C(Nc1nnc2n1CCS2)c1ccc2c(c1)OCO2 | 590
20 | CC1(C(=O)NC2CCCCCCC2)CN(S(C)(=O)=O)CC(=O)N1c1ccccc1Cl (stereo not given) | 924
21 | CCc1cc2c3c([nH]c2cc1S(=O)(=O)N1CCN(c2ccccn2)CC1)CC(C)(C)CC3=O | 695
22 | NS(=O)(=O)c1ccc(NC(=O)Cc2cn(Cc3ccc(F)cc3)c3ccccc23)cc1 | 824
23 | CC(C)C(=O)N1CCC2(C1)c1nc[nH]c1CCN2CC1CCCCC1 (stereo not given) | 608
24 | CC[C@@]1(O)C[C@H](OC2CC(N(C)C)C(O)C(C)O2)c2c(cc3c(c2O)C(=O)c2c(O)ccc(O)c2C3=O)[C@H]1C(=O)OC (stereo not given in full) | 717
25 | O=C(Cc1nnc2cc(-c3nc(C4CC4)no3)ccn12)NC1CCCCCC1 | 741

Row | Compound | RP-LC retention time [s]
26 | Cc1cc(C)cc(C(=O)N2CCCC(C(=O)NC3CCCCCC3)C2)c1 (stereo not given) | 955
27 | Nc1cc(C2CCN(S(=O)(=O)c3ccccc3)CC2)no1 | 732
28 | O=C(Nc1ccc2c(c1)OCO2)C1CCCN(c2ncc(-c3ccc(F)cc3)cn2)C1 (stereo not given) | 1060
29 | Cc1cc(=O)n(CC(=O)N(C)C2CCCCC2)c(N2CCOCC2)n1 | 656
30 | CC(=O)N(C1CCOCC1)C1CCN(C(=O)Nc2cc(F)c(F)c(F)c2)CC1 | 747
31 | O=C(NCC(O)C1CCCCC1)c1cccc2ccccc12 (stereo not given) | 802
32 | O=C(Cc1nnc2c(-c3nc(C4CC4)no3)cccn12)N1CCCCCC1 | 674
33 | CCn1cc(C(=O)Nc2ccc(C)cc2C)c2cccnc21 | 962
34 | O=C(NCCCn1cccc1)c1ccc(F)c(F)c1 | 791
35 | NC(=O)[C@@H]1C[C@H](Oc2ccccc2)CN1C1CCC1 | 571
36 | Cc1ccc(NC(=O)C2CCN(S(=O)(=O)c3ccc4c(c3)sc(=O)n4C(C)C)CC2)cc1C | 953
37 | OCCNCc1ccc(-c2ccc(Cl)cc2)o1 | 966
38 | Cc1ccc(S(=O)(=O)N2CCC3(CC2)NCCN=C3NCc2ccccc2)c(C)c1 | 739
39 | CN1CCN(C(=O)c2csc(N3CCN(c4ccccc4F)CC3)n2)CC1 | 649
40 | CSc1ccc(CNC(=O)CCC(=O)N2Cc3cccn3-c3ccccc32)cc1 | 961
41 | Cc1nc2c(c(N(C)CCc3c(C)nn(C)c3C)n1)CCC2 | 588
42 | CC(C)CN(C1CCOCC1)C1CN(C(=O)Nc2ccccc2)C1 | 594
43 | COc1ccc(C2C(C(=O)NC(C)C)c3ccccc3C(=O)N2C)cc1 (stereo not given) | 730
44 | O=C(NCc1ccc(F)cc1F)c1ccc2c(c1)ncn2CCN1CCCC1 | 576
45 | Fc1cnccc1CN1CC2(CCCCC2)CC1COc1ccncc1 (stereo not given) | 747
46 | Fc1ccc(C2Cn3nnc(-c4nc(-c5ccncc5)no4)c3CO2)cc1 (stereo not given) | 912
47 | CC(C)C(=O)Nc1cc2c(cc1S(=O)(=O)c1ccccc1)n(C)c(=O)n2C | 772
48 | Cc1ccc(Nc2c(-c3c(F)cccc3Cl)nc3ccc(Br)cn23)cc1 | 985
49 | COc1cc(N2C=C(C(=O)N3CCCCC3)S(=O)(=O)c3ccccc32)cc(OC)c1OC | 812

The remaining lines, values ahead:

Row | RP-LC retention time [s] | Compound
50 | 793 | COc1ccc(S(=O)(=O)N2CCC(c3noc(-c4cccnc4)n3)C2)cc1 (stereo not given)
51 | 1220 | Cc1ccc(-n2nc(C)c3c(C(F)(F)F)cc(OCC(=O)NCc4ccco4)nc32)cc1
52 | 802 | CCOC(=O)c1cccc(N2C=C(C(=O)N3CCCC3)S(=O)(=O)c3ccccc32)c1
53 | 1070 | COc1ccc(-c2nc(Cc3noc(-c4ccccc4OC)n3)c(C)o2)cc1
54 | 915 | O=C(NCc1ccccc1)c1cn(-c2ccc(-c3nc(C4CC4)no3)cn2)cn1
55 | 1240 | CCOc1ccc(NC(=O)c2cc3sc(Cl)cc3n2CC)cc1
56 | 1160 | COc1ccccc1NC(=O)Nc1cc(C(C)C)ccc1C
57 | 958 | COc1ccc(-c2noc(-c3ncn4c3COC(c3ccc(F)cc3)C4)n2)cc1OC (stereo not given)
58 | 1050 | Cc1cc2nn(CC(=O)Nc3ccc(Cl)cc3)c(=O)n2c(Nc2ccccc2)n1
59 | 681 | Cc1ccc(S(=O)(=O)Nc2cccc(-c3cn4ccccc4n3)c2)cc1[N+](=O)[O-]
60 | 571 | CCCCC(=O)Nc1ccc2nc(N3CCN(C)CC3)cc(C(=O)O)c2c1
61 | 878 | O=C(Nc1ccc(OCc2nnc(-c3ccccc3)o2)cc1)C1CCC1
62 | 1050 | CCCCn1c(=O)c2ccccc2n(Cc2nc(-c3ccccc3OC)no2)c1=O
63 | 1070 | CCOc1ccc(OCC)c(NC(=O)C(=O)c2ccc[nH]2)c1
64 | 878 | O=C(Nc1ncc(Cc2cccc3ccccc23)s1)C1CC1
65 | 1150 | CCOC(=O)c1cnc2c(-c3cccc(Cl)c3)c(COC)nn2c1N
66 | 774 | COc1ccc2[nH]cc(CCNC(=O)c3c(Cl)cccc3Cl)c2c1
67 | 995 | O=S(=O)(c1cccc(-c2nnc(-c3ccc(Cl)cc3)o2)c1)N1CCOCC1
68 | 1030 | Cc1cccc(-c2noc(Cn3c(=O)n(-c4ccc(F)cc4)c(=O)c4sccc43)n2)c1
69 | 757 | O=C(COc1ccc(-c2nnc3n2CCCC3)cc1)Nc1ccc(Cl)cc1
70 | 612 | CCOC(=O)CNC(=O)N1CCN(Cc2nc3cccnc3n2-c2cccc(F)c2)CC1

Row | RP-LC retention time [s] | Compound
71 | 711 | COc1ccc2c(CCNC(=O)Nc3ccc(Cl)cc3)c[nH]c2c1
72 | 660 | CCC(=O)Nc1ccc(-n2cnc(C(=O)NCC3CC3)c2)nc1
73 | 735 | Cc1ccc(-c2nc(NCC3CCCO3)ncc2C(=O)O)cc1 (stereo not given)
74 | 866 | Cc1nc(-c2noc(-c3ccccc3)n2)cn1CC(=O)NCc1ccc(Cl)cc1
75 | 823 | COCCCNC(=O)c1cc2c(n(-c3ccc(C(F)(F)F)cc3)c1=O)CCCC2=O
76 | 840 | Cc1ccc(CNC(=O)c2csc(-c3cn(C)c4ncccc34)n2)cc1C
77 | 697 | Cc1ccc(NC(=O)C2CCN(S(=O)(=O)c3ccc4c(c3)sc(=O)n4C)CC2)nc1
78 | 643 | Cc1nc(-c2ccc(OC3CCN(C(=O)CCc4nc5ccccc5[nH]4)C3)cc2)no1 (stereo not given)
79 | 927 | COc1ccc(Cc2nc(-c3ccc4c(c3)nc(C)c(=O)n4C)no2)cc1
80 | 609 | CCOc1ccc(NC(=O)c2cnc(N3CCN(CC)CC3)nc2N)cc1
81 | 649 | COc1ccc(Cl)c2c(=O)c3c([nH]c12)CCN(CC(=O)Nc1cc(C)ccc1C)C3
82 | 594 | Cc1noc([C@@H]2CN(Cc3cc(Cl)ccc3F)C[C@H]2CO)n1
83 | 719 | COc1ccc(Cl)cc1C(=O)Nc1ccc(-c2nc(C)no2)cc1
84 | 777 | CCCCN(C)C(=O)c1sc(Nc2ccccn2)nc1C
85 | 1000 | CCOC(=O)c1noc2ncnc(N3CCc4cc(OC)c(OC)cc4C3C)c12 (stereo not given)
86 | 806 | Cc1ccc(NC(=O)N2CCC(n3c(-c4ccco4)nc4cccnc43)C2)cc1Cl (stereo not given)
87 | 830 | CCOc1ccccc1NC(=O)C1CCN(S(C)(=O)=O)c2cc(C)ccc2O1 (stereo not given)
88 | 593 | CCOC(=O)c1noc2ncnc(Nc3ccc(CN4CCCCC4)cc3)c12
89 | 1290 | CCc1nc(-c2ccc(-c3noc(COc4ccccc4)n3)cc2)cs1
90 | 1100 | O=S(=O)(Cc1ccccc1Cl)N1CCc2nc(-c3ccc(F)cc3)ncc2C1
